# Test results published in patent publication KR20230001519A, “근위 단백질 변형 반응을 이용한 신규한 약물 결합 단백질의 동정” (서울대학교산학협력단, priority 2021, dated 2023).
# Counter-ions that a name gives are not always drawn.
# Columns and labels:
# [1] = target: T1, RIOK1 (Homo sapiens, UniProt Q9BRS2); test: PROCID mass analysis, RIOK1; format: cell-based; details: RIOK1, K562
# T1 construct: endogenous in cells; host or cells: K562 stably expressing HT-V5-TurbID
# T1 sequence (Q9BRS2 1-568): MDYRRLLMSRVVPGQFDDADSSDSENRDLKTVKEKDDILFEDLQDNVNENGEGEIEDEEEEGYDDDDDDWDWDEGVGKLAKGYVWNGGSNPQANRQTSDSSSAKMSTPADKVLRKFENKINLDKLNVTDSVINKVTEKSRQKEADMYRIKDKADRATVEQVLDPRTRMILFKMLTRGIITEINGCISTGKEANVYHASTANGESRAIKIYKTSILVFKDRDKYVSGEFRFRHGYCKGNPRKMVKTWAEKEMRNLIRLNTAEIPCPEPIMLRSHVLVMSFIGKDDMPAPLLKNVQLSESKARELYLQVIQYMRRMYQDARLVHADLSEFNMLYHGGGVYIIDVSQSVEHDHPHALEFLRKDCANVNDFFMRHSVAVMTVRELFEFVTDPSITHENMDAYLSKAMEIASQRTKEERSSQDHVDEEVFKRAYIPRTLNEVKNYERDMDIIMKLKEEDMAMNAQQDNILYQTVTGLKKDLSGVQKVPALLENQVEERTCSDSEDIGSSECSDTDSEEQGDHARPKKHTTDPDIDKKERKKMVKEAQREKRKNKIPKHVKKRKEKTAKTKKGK
# [2] = target: T2, KDABL1 (Homo sapiens, UniProt P00519); test: In cellulo translocation assay of KDABL1 to mitochondrial HT-TurbID-MoA (confocal); format: cell-based; design: KDABL1, 아미노산 239-512, Uniprot ID: P00519; expressed in transfected cells; host or cells: U2OS (translocation, A4); details: U2OS, 500 nM, 3 h
# T2 sequence (P00519 239-512): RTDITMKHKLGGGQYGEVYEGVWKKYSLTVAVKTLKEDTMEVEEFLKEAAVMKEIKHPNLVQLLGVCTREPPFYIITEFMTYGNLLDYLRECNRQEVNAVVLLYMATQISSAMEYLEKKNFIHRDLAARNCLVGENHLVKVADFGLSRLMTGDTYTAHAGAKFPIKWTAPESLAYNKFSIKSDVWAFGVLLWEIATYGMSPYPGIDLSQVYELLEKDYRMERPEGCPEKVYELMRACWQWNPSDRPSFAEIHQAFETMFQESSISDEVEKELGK
# [3] = test system: HaloTag protein (할로택 단백질); test: In vitro competition assay of HaloTag ligand (dansyl-HTL, in-gel fluorescence); format: binding; details: competition with dansyl-HTL; purified HaloTag 10 μM, compound 10 μM; data not shown
# [4] = test system: dasatinib binding proteins of K562 cells (K562 세포의 다사티닙 결합 단백질); test: PROCID mass analysis of biotinylated proteins (dasatinib interactors, group I); format: cell-based, Homo sapiens; details: K562, 500 nM, 3 h
# [5] = test system: K562 cells (K562 세포); test: CCK-8 growth inhibition, K562; format: cell-based, human; details: K562, 72 h
# [6] = target: T3, TOM20-KDABL1 (Homo sapiens, UniProt P00519); test: In cellulo mitochondrial translocation of HT-TurbID to TOM20-KDABL1; format: cell-based; details: data not shown
# T3 construct: KDABL1, 아미노산 239-512, Uniprot ID: P00519; expressed in transfected cells
# T3 sequence (P00519 239-512): T2 sequence (P00519 239-512)
# [7] = target: T4, SMARCA2 (Homo sapiens, UniProt P51531); test: PROCID mass analysis, SMARCA2; format: cell-based
# T4 construct: endogenous in cells; host or cells: K562 stably expressing HT-V5-TurbID
# T4 sequence (P51531 whole entry): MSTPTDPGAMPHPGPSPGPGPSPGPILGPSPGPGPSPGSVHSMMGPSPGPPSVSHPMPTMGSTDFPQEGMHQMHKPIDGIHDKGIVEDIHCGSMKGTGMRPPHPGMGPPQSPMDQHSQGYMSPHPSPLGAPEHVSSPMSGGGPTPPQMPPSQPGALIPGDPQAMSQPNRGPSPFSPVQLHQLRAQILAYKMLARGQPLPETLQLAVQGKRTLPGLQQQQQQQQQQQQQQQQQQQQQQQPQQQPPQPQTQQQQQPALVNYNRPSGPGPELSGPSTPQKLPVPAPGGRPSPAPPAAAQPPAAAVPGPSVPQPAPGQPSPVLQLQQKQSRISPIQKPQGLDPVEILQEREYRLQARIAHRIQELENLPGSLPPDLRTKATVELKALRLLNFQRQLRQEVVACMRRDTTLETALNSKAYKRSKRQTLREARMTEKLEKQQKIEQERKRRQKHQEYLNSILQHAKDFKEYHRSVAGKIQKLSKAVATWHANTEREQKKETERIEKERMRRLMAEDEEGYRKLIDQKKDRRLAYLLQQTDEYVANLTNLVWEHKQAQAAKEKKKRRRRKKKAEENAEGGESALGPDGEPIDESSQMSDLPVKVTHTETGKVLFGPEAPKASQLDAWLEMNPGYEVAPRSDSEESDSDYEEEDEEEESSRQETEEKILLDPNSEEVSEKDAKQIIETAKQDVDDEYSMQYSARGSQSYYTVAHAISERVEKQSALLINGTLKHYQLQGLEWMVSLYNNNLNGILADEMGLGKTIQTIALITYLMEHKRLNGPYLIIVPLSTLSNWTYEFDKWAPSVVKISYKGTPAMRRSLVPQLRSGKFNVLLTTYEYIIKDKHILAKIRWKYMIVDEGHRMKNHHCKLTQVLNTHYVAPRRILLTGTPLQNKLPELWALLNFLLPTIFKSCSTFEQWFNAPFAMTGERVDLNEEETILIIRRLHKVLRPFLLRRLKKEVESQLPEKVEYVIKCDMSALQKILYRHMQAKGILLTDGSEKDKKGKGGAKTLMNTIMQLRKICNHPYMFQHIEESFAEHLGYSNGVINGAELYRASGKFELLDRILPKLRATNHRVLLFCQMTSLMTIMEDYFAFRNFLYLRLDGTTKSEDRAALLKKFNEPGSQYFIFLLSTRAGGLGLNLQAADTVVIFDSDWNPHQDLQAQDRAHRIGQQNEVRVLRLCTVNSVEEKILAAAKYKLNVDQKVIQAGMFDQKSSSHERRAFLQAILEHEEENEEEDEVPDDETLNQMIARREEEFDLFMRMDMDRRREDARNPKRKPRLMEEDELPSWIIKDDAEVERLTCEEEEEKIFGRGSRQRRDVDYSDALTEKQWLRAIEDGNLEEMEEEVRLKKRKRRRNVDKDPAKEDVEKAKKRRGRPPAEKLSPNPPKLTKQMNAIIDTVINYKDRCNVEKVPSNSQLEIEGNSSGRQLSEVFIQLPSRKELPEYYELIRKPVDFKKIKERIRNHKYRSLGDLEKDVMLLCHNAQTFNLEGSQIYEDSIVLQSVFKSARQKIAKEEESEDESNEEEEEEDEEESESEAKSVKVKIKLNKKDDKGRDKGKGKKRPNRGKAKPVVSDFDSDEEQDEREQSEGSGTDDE
# [8] = test system: ABL1; test: PROCID mass analysis, ABL1; format: cell-based, Homo sapiens; details: ABL1, K562
# [9] = test system: HT-TurbID stably expressing K562 cells (HT-TurbID를 안정적으로 발현하는 K562 세포주); test: Biotinylation in K562 cells stably expressing HT-TurbID (streptavidin-HRP western blot); format: cell-based, human
# [10] = target: T5, CSK (Homo sapiens, UniProt P41240); test: PL-IP biotinylation of CSK-EGFP; format: cell-based
# T5 sequence (P41240 whole entry): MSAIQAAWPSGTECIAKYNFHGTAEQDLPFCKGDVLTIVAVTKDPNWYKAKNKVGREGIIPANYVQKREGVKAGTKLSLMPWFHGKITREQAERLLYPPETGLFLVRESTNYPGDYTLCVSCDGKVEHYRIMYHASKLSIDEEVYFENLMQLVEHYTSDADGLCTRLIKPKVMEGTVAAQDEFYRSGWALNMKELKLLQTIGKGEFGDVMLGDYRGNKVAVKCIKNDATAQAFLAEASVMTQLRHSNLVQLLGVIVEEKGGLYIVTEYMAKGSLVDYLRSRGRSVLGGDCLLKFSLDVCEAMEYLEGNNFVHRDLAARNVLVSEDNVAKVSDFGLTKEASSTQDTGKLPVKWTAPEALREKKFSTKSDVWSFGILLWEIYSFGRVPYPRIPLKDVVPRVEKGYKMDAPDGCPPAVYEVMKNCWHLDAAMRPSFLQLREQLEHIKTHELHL
# [11] = target: T2, KDABL1; test: Proximity biotinylation of HA-KDABL1 by HT-TurbID (PL-IP, western blot); format: cell-based; design: KDABL1, 아미노산 239-512, Uniprot ID: P00519; expressed in transfected cells; host or cells: HEK293T (PL-IP, A6); details: HEK293T, 500 nM, 3 h; biotin 100 μM, 30 min; SA-HRP western blot
# [12] = target: T5, CSK; test: PROCID mass analysis, CSK; format: cell-based; design: endogenous in cells; host or cells: K562 stably expressing HT-V5-TurbID
# [13] = target: T6, BTK (Mus musculus, UniProt P35991); test: In cellulo translocation assay, BTK-mCherry to HT-TurbID-MoA; format: cell-based; design: host or cells: U2OS (translocation, A16; reproduced in COS-7)
# T6 sequence (P35991 whole entry): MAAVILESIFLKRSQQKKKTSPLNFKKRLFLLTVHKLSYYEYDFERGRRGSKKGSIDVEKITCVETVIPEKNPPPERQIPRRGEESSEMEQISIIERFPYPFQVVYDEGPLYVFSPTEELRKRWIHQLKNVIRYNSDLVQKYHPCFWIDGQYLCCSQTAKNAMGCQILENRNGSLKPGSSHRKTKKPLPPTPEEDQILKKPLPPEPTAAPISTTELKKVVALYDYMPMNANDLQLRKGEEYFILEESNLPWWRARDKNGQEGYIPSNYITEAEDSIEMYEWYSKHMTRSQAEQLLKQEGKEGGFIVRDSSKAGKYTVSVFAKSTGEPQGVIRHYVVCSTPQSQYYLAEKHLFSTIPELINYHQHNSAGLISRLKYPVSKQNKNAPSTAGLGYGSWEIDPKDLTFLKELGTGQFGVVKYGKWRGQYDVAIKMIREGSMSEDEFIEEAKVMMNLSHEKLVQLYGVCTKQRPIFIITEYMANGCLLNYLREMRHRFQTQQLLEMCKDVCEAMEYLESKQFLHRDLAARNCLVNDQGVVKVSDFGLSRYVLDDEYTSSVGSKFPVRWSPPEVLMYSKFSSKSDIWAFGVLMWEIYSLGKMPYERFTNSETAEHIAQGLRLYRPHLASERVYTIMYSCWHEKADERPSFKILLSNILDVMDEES
# [14] = target: T5, CSK; test: In cellulo translocation assay, CSK-EGFP to HT-TurbID-MoA; format: cell-based; design: host or cells: U2OS (translocation, A17; reproduced in COS-7)
# [15] = target: T6, BTK; test: PL-IP biotinylation of BTK-mCherry; format: cell-based
# [16] = target: T7, TOM20-HA-KDABL1 (Homo sapiens, UniProt P00519); test: Proximity biotinylation of TOM20-HA-KDABL1 by HT-TurbID; format: cell-based; details: HT-TurbID in cytosol; data not shown
# T7 construct: KDABL1, 아미노산 239-512, Uniprot ID: P00519; expressed in transfected cells
# T7 sequence (P00519 239-512): T2 sequence (P00519 239-512)
# [17] = target: T8, BTK (Homo sapiens, UniProt Q06187); test: PROCID mass analysis, BTK; format: cell-based
# T8 construct: endogenous in cells; host or cells: K562 stably expressing HT-V5-TurbID
# T8 sequence (Q06187 whole entry): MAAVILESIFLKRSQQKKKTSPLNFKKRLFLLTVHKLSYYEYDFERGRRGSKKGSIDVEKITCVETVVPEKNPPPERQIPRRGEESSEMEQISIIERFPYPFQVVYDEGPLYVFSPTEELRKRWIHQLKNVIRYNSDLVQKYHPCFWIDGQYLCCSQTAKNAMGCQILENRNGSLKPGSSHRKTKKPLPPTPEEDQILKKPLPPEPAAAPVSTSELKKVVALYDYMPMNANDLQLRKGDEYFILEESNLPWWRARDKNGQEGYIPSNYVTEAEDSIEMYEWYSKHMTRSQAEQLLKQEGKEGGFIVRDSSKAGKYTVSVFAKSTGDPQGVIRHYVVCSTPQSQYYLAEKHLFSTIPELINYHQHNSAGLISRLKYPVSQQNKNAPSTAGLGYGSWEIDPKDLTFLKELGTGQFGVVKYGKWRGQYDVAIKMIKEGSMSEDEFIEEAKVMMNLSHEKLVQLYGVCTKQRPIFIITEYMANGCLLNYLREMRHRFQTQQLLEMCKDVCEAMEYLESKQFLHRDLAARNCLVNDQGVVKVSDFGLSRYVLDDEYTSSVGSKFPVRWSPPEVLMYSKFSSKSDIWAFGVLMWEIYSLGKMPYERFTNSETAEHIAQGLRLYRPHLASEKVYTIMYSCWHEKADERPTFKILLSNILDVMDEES
# [18] = target: T9, ABL2 (Homo sapiens, UniProt P42684); test: PROCID mass analysis, ABL2; format: cell-based; details: ABL2, K562
# T9 construct: endogenous in cells; host or cells: K562 stably expressing HT-V5-TurbID
# T9 sequence (P42684 whole entry): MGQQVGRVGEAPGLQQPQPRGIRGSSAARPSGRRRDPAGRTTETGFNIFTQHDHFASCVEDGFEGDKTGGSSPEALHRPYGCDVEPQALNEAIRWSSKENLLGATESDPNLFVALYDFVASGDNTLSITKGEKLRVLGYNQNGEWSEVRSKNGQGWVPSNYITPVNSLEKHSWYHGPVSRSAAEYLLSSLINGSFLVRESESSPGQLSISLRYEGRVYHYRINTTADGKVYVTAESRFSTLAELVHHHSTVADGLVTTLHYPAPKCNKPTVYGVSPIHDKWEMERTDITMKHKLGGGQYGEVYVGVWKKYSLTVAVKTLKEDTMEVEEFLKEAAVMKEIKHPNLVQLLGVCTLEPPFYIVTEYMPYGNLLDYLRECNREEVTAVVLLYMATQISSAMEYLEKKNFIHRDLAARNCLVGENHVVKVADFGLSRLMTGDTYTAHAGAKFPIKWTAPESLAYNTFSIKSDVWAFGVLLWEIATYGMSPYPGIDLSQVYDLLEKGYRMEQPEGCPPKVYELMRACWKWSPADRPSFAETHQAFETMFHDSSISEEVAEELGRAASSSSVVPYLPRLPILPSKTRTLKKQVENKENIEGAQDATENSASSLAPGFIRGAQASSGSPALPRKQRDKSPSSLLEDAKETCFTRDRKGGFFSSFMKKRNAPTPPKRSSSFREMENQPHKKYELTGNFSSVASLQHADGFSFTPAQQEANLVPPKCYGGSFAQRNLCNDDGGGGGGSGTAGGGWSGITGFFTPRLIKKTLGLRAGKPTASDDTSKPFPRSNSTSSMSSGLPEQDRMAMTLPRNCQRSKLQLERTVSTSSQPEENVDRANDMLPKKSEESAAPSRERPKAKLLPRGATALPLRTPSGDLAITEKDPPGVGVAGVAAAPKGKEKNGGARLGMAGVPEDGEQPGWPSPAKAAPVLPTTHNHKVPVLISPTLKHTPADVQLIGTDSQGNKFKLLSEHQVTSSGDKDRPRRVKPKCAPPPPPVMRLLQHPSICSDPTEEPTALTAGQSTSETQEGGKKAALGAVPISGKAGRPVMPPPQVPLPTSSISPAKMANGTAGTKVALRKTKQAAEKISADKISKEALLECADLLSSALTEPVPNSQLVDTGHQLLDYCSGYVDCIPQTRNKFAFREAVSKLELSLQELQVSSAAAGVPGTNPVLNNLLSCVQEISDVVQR
# [19] = test system: Ba/F3 cells (Ba/F3 세포); test: CCK-8 growth inhibition, Ba/F3; format: cell-based, mouse; details: Ba/F3, 72 h
# [20] = target: T10, ABDSMARCA2 (Homo sapiens, UniProt P51531); test: Translocation and PL-IP assays with ATP binding domain of SMARCA2; format: cell-based; details: concluded from translocation of ABDSMARCA2 to mitochondria-targeted HT-TurbID
# T10 construct: ABD SMARCA2(736-901aa 헬리카제-ATP 결합 도메인)-HA; expressed in transfected cells; host or cells: HEK293-AD
# T10 sequence (P51531 736-901): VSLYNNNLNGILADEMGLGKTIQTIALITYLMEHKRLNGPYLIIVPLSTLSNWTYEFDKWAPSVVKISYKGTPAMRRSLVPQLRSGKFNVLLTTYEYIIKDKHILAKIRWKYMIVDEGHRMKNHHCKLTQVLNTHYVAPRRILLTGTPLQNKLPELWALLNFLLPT
# [21] = target: T5, CSK; design: host or cells: U2OS (translocation, A17; reproduced in COS-7); HEK293T (PL-IP, A19); details: in vitro characterization; cited from earlier work
# [22] = HEK293T, 3 h, SA-HRP western blot
compound,measurement,setting,value
"Cc1nc(Nc2ncc(C(=O)Nc3c(C)cccc3Cl)s2)cc(N2CCN(CCOC(=O)NCCOCCOCCOCCOCCOCCCCCCCl)CC2)n1 [DA5, 2-(4-(6-((5-((2-chloro-6-methylphenyl)carbamoyl)thiazol-2-yl)amino)-2-methylpyrimidin-4-yl)piperazin-1-yl)ethyl(21-chloro-3,6,9,12,15-pentaoxahenicosyl)carbamate trifluoroacetate salt]",biotinylation by HT-TurbID in DA5 treated sample,[1],고도로 바이오틴화
same,translocation of KDABL1 from cytosol to mitochondria,[2],KDABL1의 효율적인 전위
same,binding to HaloTag,[3],할로택에 잘 결합한다
same,number of proteins reproducibly biotinylated only on DA5 treatment,"[4]; biotin 50 μM 30 min, P < 0.05, Log2(FC) > 1.2",33
same,number of proteins selected as dasatinib interactors (group I),[4]; includes SMARCA2,34
same,GI50,[5],서브마이크로몰 범위
same,mitochondrial translocation of HT-TurbID to TOM20-KDABL1,[6],미토콘드리아 전위가 확인되었다
same,biotinylation by HT-TurbID in DA5 treated sample,"[7]; SMARCA2, K562",고도로 바이오틴화
same,fold change (FC) of biotinylation,"[7]; SMARCA2, K562, DA5 treated vs control, highest fold change",5.14
same,biotinylation by HT-TurbID in DA5 treated sample,[8],고도로 바이오틴화
same,biotinylation reaction,[9],강력한 바이오틴화 반응
same,streptavidin-HRP western blot pattern compared with DA and DMSO,[9],미묘하게 차이가 있었다
same,DA5-dependent biotinylation,"[10]; CSK, HT-TurbID-MoA instead of HT-TurbID, data not shown",그대로 재현되었다
same,co-purification of HT-TurbID with bait protein,"[10]; CSK-EGFP, anti-HA pulldown",DA5 처리 샘플에서만 미끼 단백질과 공동 정제되었다
same,biotinylation of enriched CSK-EGFP,[10]; [22],DA5 처리 하에서만 바이오틴화되었다
same,biotinylation of KDABL1 by HT-TurbID,[11],DA5로 처리되었을 때만 KDABL1이 HT-TurbID에 의해 바이오틴화 된다
same,biotinylation by HT-TurbID in DA5 treated sample,[12]; K562,고도로 바이오틴화
same,biotinylated lysine residues,[12]; MS analysis,다수의 라이신 잔기가 DA5 처리된 HT-TurbID에 의해 바이오틴화 된다
same,DA5-dependent translocation,"[13]; BTK, COS-7, data not shown",그대로 재현되었다
same,Pearson's correlation coefficient,"[13]; BTK, U2OS, after DA5 treatment",급격히 증가
same,translocation from cytosol to mitochondria,"[13]; BTK-mCherry, U2OS, 500 nM, 3 h",세포질에서 미토콘드리아로 전위되는 것이 확인되었다
same,DA5-dependent translocation,"[14]; CSK, COS-7, data not shown",그대로 재현되었다
same,Pearson's correlation coefficient,"[14]; CSK, U2OS, after DA5 treatment",급격히 증가
same,translocation from cytosol to mitochondria,"[14]; CSK-EGFP, U2OS, 500 nM, 3 h",세포질에서 미토콘드리아로 전위되는 것이 확인되었다
same,DA5-dependent biotinylation,"[15]; BTK, HT-TurbID-MoA instead of HT-TurbID, data not shown",그대로 재현되었다
same,co-purification of HT-TurbID with bait protein,"[15]; BTK-mCherry, anti-HA pulldown",DA5 처리 샘플에서만 미끼 단백질과 공동 정제되었다
same,biotinylation of enriched BTK-mCherry,[15]; [22],DA5 처리 하에서만 바이오틴화되었다
same,biotinylation of TOM20-HA-KDABL1 by HT-TurbID,[16],재현 가능한 DA5 의존성 바이오틴화를 관찰
same,biotinylation by HT-TurbID in DA5 treated sample,[17]; K562,고도로 바이오틴화
same,biotinylated lysine residues,[17]; MS analysis,다수의 라이신 잔기가 DA5 처리된 HT-TurbID에 의해 바이오틴화 된다
same,biotinylation by HT-TurbID in DA5 treated sample,[18],고도로 바이오틴화
same,GI50,[19],서브마이크로몰 범위
Cc1nc(Nc2ncc(C(=O)Nc3c(C)cccc3Cl)s2)cc(N2CCN(CCO)CC2)n1 [다사티닙],physical binding affinity of ABDSMARCA2 for dasatinib,[20],물리적 결합 친화성을 가지고 있으며
same,binding affinity for dasatinib,[21],다사티닙에 대한 결합 친화력이 있음
same,biotinylation reaction,[9],강력한 바이오틴화 반응
"Cc1nc(Nc2ncc(C(=O)Nc3c(C)cccc3Cl)s2)cc(N2CCN(CCOC(=O)NCCOCCOCCOCCCCCCCl)CC2)n1 [DA3, 2-(4-(6-((5-((2-chloro-6-methylphenyl)carbamoyl)thiazol-2-yl)amino)-2-methylpyrimidin-4-yl)piperazin-1-yl)ethyl(2-(2-(2-((6-chlorohexyl)oxy)ethoxy)ethoxy)ethyl)carbamate trifluoroacetate salt]",binding to HaloTag,[3],할로택에 잘 결합한다
same,GI50,[5],서브마이크로몰 범위
same,GI50,[19],서브마이크로몰 범위
